B1: MOR03087: anti-CD38 antibody whose amino acid sequence and DNA sequence is provided in FIG. 4; disclosed in U.S. Pat. No. 8,088,896 (antibody, listed as Homo sapiens, V domains shown)
VH: QVQLVESGGGLVQPGGSLRLSCAASGFTFSSYYMNWVRQAPGKGLEWVSGISGDPSNTYYADSVKGRFTISRDNSKNTLYLQMNSLRAEDTAVYYCARDLPLVYTGFAYWGQGTLVTVSS
VL: DIELTQPPSVSVAPGQTARISCSGDNLRHYYVYWYQQKPGQAPVLVIYGDSKRPSGIPERFSGSNSGNTATLTISGTQAEDEADYYCQTYTGGASLVFGGGTKLTVLGQ
modifications: MOR202 Variable Heavy Domain; MOR202 Variable Light Domain

Tests used:
[1] = tested on: Human Multiple Myeloma NCI-H929 cells; assay: Orthotopic osteolysis model, microCT analysis of tibia (bone lysis); assay type: in vivo, SCID mice; details: for Total Bone Lysis: microCT, day 42, vehicle control = 100.0, Melphalan 4 mg/kg i.v., MOR03087 3 mg/kg i.p., 3x weekly for 6 weeks, data of FIG. 1
[2] = tested on: Human Multiple Myeloma NCI-H929 cells; assay: M-Protein concentration in sera (ELISA) on day 42 of the orthotopic osteolysis model; assay type: in vivo, SCID mice; details: sera at termination (day 42), versus mice that received solvent diluent only, FIG. 3

Molecule | Bone lysis (microCT, FIG. 2) ([1]; Melphalan 8 mg/kg alone, i.v. 3x weekly for 6 weeks, day 42) | Total Bone Lysis [1] [%] | Protein M concentration in sera [2]
N[C@@H](Cc1ccc(N(CCCl)CCCl)cc1)C(=O)O [Melphalan] | reduced bone lysis completely | 61.3 | significantly reduced
B1 | – | 27.6 | significantly reduced
